Assay results reported in patent US7718700B2, “Growth factor-binding compounds and methods of use” (Yale University, priority 2004, dated 2010).
Where “and” joins values, the source holds several entries; their conditions need not be identical. Equal values may be shown once. Read-outs that look alike come from different tables or passages of the source.

How the values were obtained:
[1] = system: PDGFR; assay: PDGF-stimulated PDGFR tyrosine phosphorylation in NIH 3T3 cells; format: cell-based, mouse
Experimental: (§1) Inhibition of growth factor-dependent receptor tyrosine phosphorylation by GFBs. Starved Flk-1/KDR-overexpressing NIH 3T3 cells (Flk-1/NIH 3T3) or NIH 3T3 cells were pretreated with GFBs for 5 min before stimulation with VEGF (50 ng/ml) or PDGF-BB (10 ng/ml) for 10 min, respectively. The cells were then harvested and lysed, and proteins from the lysates were separated by SDS-PAGE and transferred to nitrocellulose. Membranes then were either immunoblotted with anti-phospho-VEGFR2 antibody (Cell Signaling Technologies, Beverly, Mass.) for activated Flk-1 or anti-phospho-tyrosine antibody (4G10, Upstate Biotechnology, Lake Placid, N.Y.) for activated PDGFR. Phosphotyrosine Flk-1 and PDGFR were quantified using a Bio-Rad Model GS-700 Imaging Densitometer (Bio-Rad Laboratories, Inc, Hercules, Calif.) (Blaskovich, M. A. et al. Nat Biotechnol, 2000, 18:1065-70).

[2] = system: VEGFR (Flk-1/KDR); assay: VEGF-stimulated Flk-1 tyrosine phosphorylation in Flk-1/NIH 3T3 cells; format: cell-based, human
Experimental: as §1

[3] = system: pancreatic tumors; conditions: Bergers et al. 2003; cited from earlier work
[4] = system: metastatic colorectal cancer; conditions: patients with metastatic colorectal cancer; cited from earlier work
[5] = PDGF-BB 10 ng/ml stimulated receptor tyrosine phosphorylation, NIH 3T3 cells; read-out: IC50 (μM) PDGFR
[6] = VEGF 50 ng/ml stimulated Flk-1 tyrosine phosphorylation, read-out: IC50 (μM) VEGFR
[7] = read-out: IC50 (μM) PDGFR; PDGF-BB 10 ng/ml stimulated receptor tyrosine phosphorylation, NIH 3T3 cells
[8] = read-out: IC50 (μM) VEGFR, VEGF 50 ng/ml stimulated Flk-1 tyrosine phosphorylation

Row | IC50 [1, 5] | IC50 [2, 6] | Compound | other results
1 | 2.62 ± 0.5 µM | 4.96 ± 0.34 µM | CCCCOc1c2cc(C(=O)Nc3cc(C(=O)O)cc(C(=O)O)c3)cc1Cc1cc(C(=O)Nc3cc(C(=O)O)cc(C(=O)O)c3)cc(c1OCCCC)Cc1cc(C(=O)Nc3cc(C(=O)O)cc(C(=O)O)c3)cc(c1OCCCC)Cc1cc(C(=O)Nc3cc(C(=O)O)cc(C(=O)O)c3)cc(c1OCCCC)C2 [GFB201] | 
2 |  |  | CCCCOc1c2cc(C(=O)Nc3cc(C(=O)NC(CC(=O)O)C(=O)O)cc(C(=O)NC(CC(=O)O)C(=O)O)c3)cc1Cc1cc(C(=O)Nc3cc(C(=O)NC(CC(=O)O)C(=O)O)cc(C(=O)NC(CC(=O)O)C(=O)O)c3)cc(c1OCCCC)Cc1cc(C(=O)Nc3cc(C(=O)NC(CC(=O)O)C(=O)O)cc(C(=O)NC(CC(=O)O)C(=O)O)c3)cc(c1OCCCC)Cc1cc(C(=O)Nc3cc(C(=O)NC(CC(=O)O)C(=O)O)cc(C(=O)NC(CC(=O)O)C(=O)O)c3)cc(c1OCCCC)C2 (stereo not shown) [GFB202] | IC50 [1, 7]: 1.39 ± 0.38 µM; IC50 [2, 8]: 11.3 ± 2.9 µM
3 |  | 19.8 ± 2.9 µM | CCCCOc1c2cc(C(=O)Nc3cc(C(=O)NCCC(=O)O)cc(C(=O)NCCC(=O)O)c3)cc1Cc1cc(C(=O)Nc3cc(C(=O)NCCC(=O)O)cc(C(=O)NCCC(=O)O)c3)cc(c1OCCCC)Cc1cc(C(=O)Nc3cc(C(=O)NCCC(=O)O)cc(C(=O)NCCC(=O)O)c3)cc(c1OCCCC)Cc1cc(C(=O)Nc3cc(C(=O)NCCC(=O)O)cc(C(=O)NCCC(=O)O)c3)cc(c1OCCCC)C2 [GFB203] | 
4 |  |  | CCCCOc1c2cc(C(=O)Nc3cc(C(=O)NC(CC(=O)O)C(=O)O)cc(C(=O)NC(Cc4ccc(O)cc4)C(=O)O)c3)cc1Cc1cc(C(=O)Nc3cc(C(=O)NC(CC(=O)O)C(=O)O)cc(C(=O)NC(Cc4ccc(O)cc4)C(=O)O)c3)cc(c1OCCCC)Cc1cc(C(=O)Nc3cc(C(=O)NC(CC(=O)O)C(=O)O)cc(C(=O)NC(Cc4ccc(O)cc4)C(=O)O)c3)cc(c1OCCCC)Cc1cc(C(=O)Nc3cc(C(=O)NC(CC(=O)O)C(=O)O)cc(C(=O)NC(Cc4ccc(O)cc4)C(=O)O)c3)cc(c1OCCCC)C2 (stereo not shown) [GFB205] | IC50 [2, 8]: 5.86 ± 0.68 µM
5 |  | 18.4 ± 2.72 µM | CCCCOc1c2cc(C(=O)Nc3cc(C(=O)NCCC(=O)O)cc(C(=O)N[C@@H](Cc4ccc(O)cc4)C(=O)O)c3)cc1Cc1cc(C(=O)Nc3cc(C(=O)NCCC(=O)O)cc(C(=O)N[C@@H](Cc4ccc(O)cc4)C(=O)O)c3)cc(c1OCCCC)Cc1cc(C(=O)Nc3cc(C(=O)NCCC(=O)O)cc(C(=O)N[C@@H](Cc4ccc(O)cc4)C(=O)O)c3)cc(c1OCCCC)Cc1cc(C(=O)Nc3cc(C(=O)NCCC(=O)O)cc(C(=O)N[C@@H](Cc4ccc(O)cc4)C(=O)O)c3)cc(c1OCCCC)C2 [GFB207] | 
6 | 0.84 ± 0.06 µM |  | CCCCOc1c2cc(C(=O)Nc3cc(C(=O)NCCC(=O)O)cc(C(=O)N[C@@H](Cc4ccc(OCC(=O)O)cc4)C(=O)O)c3)cc1Cc1cc(C(=O)Nc3cc(C(=O)NCCC(=O)O)cc(C(=O)N[C@@H](Cc4ccc(OCC(=O)O)cc4)C(=O)O)c3)cc(c1OCCCC)Cc1cc(C(=O)Nc3cc(C(=O)NCCC(=O)O)cc(C(=O)N[C@@H](Cc4ccc(OCC(=O)O)cc4)C(=O)O)c3)cc(c1OCCCC)Cc1cc(C(=O)Nc3cc(C(=O)NCCC(=O)O)cc(C(=O)N[C@@H](Cc4ccc(OCC(=O)O)cc4)C(=O)O)c3)cc(c1OCCCC)C2 [GFB208] | 
7 | 2.9 µM and 2.91 µM | 5.58 ± 4.11 µM | CCCCOc1c2cc(C(=O)Nc3cc(C(=O)O)cc(C(=O)OC)c3)cc1Cc1cc(C(=O)Nc3cc(C(=O)O)cc(C(=O)OC)c3)cc(c1OCCCC)Cc1cc(C(=O)Nc3cc(C(=O)O)cc(C(=O)OC)c3)cc(c1OCCCC)Cc1cc(C(=O)Nc3cc(C(=O)O)cc(C(=O)OC)c3)cc(c1OCCCC)C2 [GFB209] | 
8 |  |  | CCCCOc1c2cc(C(=O)Nc3cc(C(=O)O)cc(C(=O)OC(C)(C)C)c3)cc1Cc1cc(C(=O)Nc3cc(C(=O)O)cc(C(=O)OC(C)(C)C)c3)cc(c1OCCCC)Cc1cc(C(=O)Nc3cc(C(=O)O)cc(C(=O)OC(C)(C)C)c3)cc(c1OCCCC)Cc1cc(C(=O)Nc3cc(C(=O)O)cc(C(=O)OC(C)(C)C)c3)cc(c1OCCCC)C2 [GFB210] | IC50 [1, 7]: 0.35 ± 0.31 µM; IC50 [2, 8]: 4.54 ± 0.55 µM
9 |  |  | CCCCOc1c2cc(C(=O)Nc3cc(C(=O)O)cc(C(=O)NCc4ccccc4)c3)cc1Cc1cc(C(=O)Nc3cc(C(=O)O)cc(C(=O)NCc4ccccc4)c3)cc(c1OCCCC)Cc1cc(C(=O)Nc3cc(C(=O)O)cc(C(=O)NCc4ccccc4)c3)cc(c1OCCCC)Cc1cc(C(=O)Nc3cc(C(=O)O)cc(C(=O)NCc4ccccc4)c3)cc(c1OCCCC)C2 [GFB211] | IC50 [1, 7]: 1.34 ± 0.32 µM; IC50 [2, 8]: 13 ± 0.49 µM
10 | 0.29 ± 0.08 µM | > 10 µM | CCCCOc1c2cc(C(=O)Nc3cc(C(=O)O)cc(C(=O)NC4CCCCC4)c3)cc1Cc1cc(C(=O)Nc3cc(C(=O)O)cc(C(=O)NC4CCCCC4)c3)cc(c1OCCCC)Cc1cc(C(=O)Nc3cc(C(=O)O)cc(C(=O)NC4CCCCC4)c3)cc(c1OCCCC)Cc1cc(C(=O)Nc3cc(C(=O)O)cc(C(=O)NC4CCCCC4)c3)cc(c1OCCCC)C2 [GFB212] | 
11 | 0.57 ± 0.06 µM | 0.85 ± 0.44 µM | CCCCOc1c2cc(C(=O)Nc3cc(C(=O)O)cc(C(=O)NC(C)(C)C)c3)cc1Cc1cc(C(=O)Nc3cc(C(=O)O)cc(C(=O)NC(C)(C)C)c3)cc(c1OCCCC)Cc1cc(C(=O)Nc3cc(C(=O)O)cc(C(=O)NC(C)(C)C)c3)cc(c1OCCCC)Cc1cc(C(=O)Nc3cc(C(=O)O)cc(C(=O)NC(C)(C)C)c3)cc(c1OCCCC)C2 [GFB213] | 
12 | 0.17 ± 0.02 µM | > 10 µM | CCCCOc1c2cc(C(=O)Nc3cc(C(=O)O)cc(C(=O)NC(C)C)c3)cc1Cc1cc(C(=O)Nc3cc(C(=O)O)cc(C(=O)NC(C)C)c3)cc(c1OCCCC)Cc1cc(C(=O)Nc3cc(C(=O)O)cc(C(=O)NC(C)C)c3)cc(c1OCCCC)Cc1cc(C(=O)Nc3cc(C(=O)O)cc(C(=O)NC(C)C)c3)cc(c1OCCCC)C2 [GFB214] | 
13 | 0.21 ± 0.13 µM | > 10 µM | CCCCOc1c2cc(C(=O)Nc3cc(C(=O)O)cc(C(=O)NCCC)c3)cc1Cc1cc(C(=O)Nc3cc(C(=O)O)cc(C(=O)NCCC)c3)cc(c1OCCCC)Cc1cc(C(=O)Nc3cc(C(=O)O)cc(C(=O)NCCC)c3)cc(c1OCCCC)Cc1cc(C(=O)Nc3cc(C(=O)O)cc(C(=O)NCCC)c3)cc(c1OCCCC)C2 [GFB215] | 
14 | 0.15 ± 0.01 µM | > 10 µM | C=CCNC(=O)c1cc(NC(=O)c2cc3c(OCCCC)c(c2)Cc2cc(C(=O)Nc4cc(C(=O)O)cc(C(=O)NCC=C)c4)cc(c2OCCCC)Cc2cc(C(=O)Nc4cc(C(=O)O)cc(C(=O)NCC=C)c4)cc(c2OCCCC)Cc2cc(C(=O)Nc4cc(C(=O)O)cc(C(=O)NCC=C)c4)cc(c2OCCCC)C3)cc(C(=O)O)c1 [GFB216] | 
15 |  |  | CCCCOc1c2cc(C(=O)Nc3cc(C(=O)OCc4ccccc4)cc(C(=O)OC(C)(C)C)c3)cc1Cc1cc(C(=O)Nc3cc(C(=O)OCc4ccccc4)cc(C(=O)OC(C)(C)C)c3)cc(c1OCCCC)Cc1cc(C(=O)Nc3cc(C(=O)OCc4ccccc4)cc(C(=O)OC(C)(C)C)c3)cc(c1OCCCC)Cc1cc(C(=O)Nc3cc(C(=O)OCc4ccccc4)cc(C(=O)OC(C)(C)C)c3)cc(c1OCCCC)C2 [GFB217] | inhibition of PDGF signaling, in words [1]: did not have a significant activity; IC50 [1, 7]: > 10 µM; IC50 [2, 8]: > 10 µM
16 | 0.54 ± 0.15 µM | > 10 µM | CCCCOc1c2cc(C(=O)Nc3cc(C(=O)O)cc(C(=O)Nc4ccncc4)c3)cc1Cc1cc(C(=O)Nc3cc(C(=O)O)cc(C(=O)Nc4ccncc4)c3)cc(c1OCCCC)Cc1cc(C(=O)Nc3cc(C(=O)O)cc(C(=O)Nc4ccncc4)c3)cc(c1OCCCC)Cc1cc(C(=O)Nc3cc(C(=O)O)cc(C(=O)Nc4ccncc4)c3)cc(c1OCCCC)C2 [GFB218] | 
17 | 0.53 ± 0.15 µM | > 10 µM | CCCCOc1c2cc(C(=O)Nc3cc(C(=O)O)cc(C(=O)Nc4cccc5ccccc45)c3)cc1Cc1cc(C(=O)Nc3cc(C(=O)O)cc(C(=O)Nc4cccc5ccccc45)c3)cc(c1OCCCC)Cc1cc(C(=O)Nc3cc(C(=O)O)cc(C(=O)Nc4cccc5ccccc45)c3)cc(c1OCCCC)Cc1cc(C(=O)Nc3cc(C(=O)O)cc(C(=O)Nc4cccc5ccccc45)c3)cc(c1OCCCC)C2 [GFB219] | 
18 |  |  | Cc1cc(C)c(/C=C2\C(=O)Nc3ccccc32)[nH]1 [SU5416] | effect on pancreatic tumors [3]: suppresses early, but not late, development of pancreatic tumors
19 |  |  | Cc1[nH]c(/C=C2\C(=O)Nc3ccccc32)c(C)c1CCC(=O)O [SU6668] | effect on pancreatic tumors [3]: induced regression of advanced pancreatic tumor at late stage of development
20 |  |  | AVASTIN: humanized anti-VEGF monoclonal antibody | increase of median survival [4]: 5 months
